How the values were obtained:
[1] = system: store-operated calcium entry (SOCE) in HT-22 cells; experiment: SOCE Ca2+ imaging in Fluo3-loaded HT-22 cells (Tg-induced store release, then Ca2+ entry); assay type: cell-based, mouse
Procedure: (§1) Cytosolic Ca^2+ imaging was assessed in the HT-22 cell culture with the fluorescent probe Fluo3-AM. […] The untread cells were regarded as the controls. […] Then, the cells were washed once with 1 mL of MLocke’s K5 buffer, and the 35 mm culture dishes were placed in the thermostatic plate at 37 °C (Warner Instrument Co., Hamden, CT, USA) of the Nikon Diaphot 300 inverted epifluorescence microscope (Tokyo, Japan) with an NCF Plan ELWD 40× objective (the pixel size of the images shown in this work was 0.2 μm). The images of the Fluo3-loaded cells were acquired with the Hamamatsu Orca-R^2 CCD camera (binning mode 2 × 2) with an excitation filter of 470 nm, a dichroic mirror of 510 nm with an emission filter of 520 nm, and a 0.3 s exposure time. […] The depletion of the Ca^2+ stores was triggered by adding 2 μM of the SERCA pump blocker Tg plus ethylene glycol tetraacetic acid (1 mM), in a Ca^2+-free Mlocke’s K5 buffer. Then, the SOCE was measured after the addition of 3 mM of CaCl2 to the Tg-containing medium. […] The activity of the RyR Ca^2+-leak channels was evaluated by incubation with 100 μM of the RyR antagonist ryanodine for 1 h in the HT-22 culture media. In all experiments with antagonists, we performed the respective dimethylsulfoxide vehicle controls.

HT-22 cells [2] = experiment: Mitochondrial membrane potential, TMRE assay; assay type: cell-based, mouse
Procedure: Mitochondrial depolarization was monitored with the fluorescent dye TMRE, as previously described, with small changes. […] Then, the HT-22 culture dishes were placed in the thermostatic plate at 37 °C of the inverted epifluorescence microscope and the fluorescence kinetic was recorded at 556 nm excitation filter and a dichroic mirror of 580 nm with an emission filter of 590 nm and a time of exposure 0.01 s. To assess the level of the mitochondrial membrane depolarization, 5 μM of a potent mitochondrial oxidative phosphorylation uncoupler FCCP was added to the medium. The region of interest (ROI) tool of the HCImage software was used for the quantitative analysis. The average fluorescence intensity readings per pixel in the HT-22 cells were taken from several fields for a total number of 80 cells.

HT22 cells = experiment: Intracellular calcium response of Fluo3-loaded HT22 cells to cholinergic agonists; assay type: cell-based, mouse; settings: for intracellular calcium response in the majority of the cells: Fluo3-loaded HT22 cells
Procedure: as §1
Supplementary Figure S8. Representative kinetic traces of the average fluorescence intensity of Fluo3-loaded
HT22 cells (Ft/F0) recorded over time every 15 s intervals
Ca2+ entry mediated by cholinergic receptors. The data shown are the means ±SEM of n =16 cells.
(1 picture or pasted object on this page, not shown here)

STIM1 = biological target: T1, STIM1 (Mus musculus, UniProt P70302); experiment: Co-immunoprecipitation of STIM1 with anti-Aβ antibody from HT-22 lysates, Western blot; assay type: binding; settings: 250 nM Aβ(1-42), HT-22 cell lysates
T1 construct: endogenous in cells; host or cells: HT-22 cell lysate
Procedure: The HT-22 cells were lysed in a buffer: 25 mM of Tris(hydroxymethyl)aminomethane–HCl, pH 7.4, 150 mM of NaCl, 5 mM of ethylenediaminetetraacetic acid, 50 mM of NaF, 5 mM of NaVO3, 0.25% of Triton X-100, and 5 mM of methyl-β-cyclodextrin, supplemented with 1× […]^TM protease inhibitor cocktail. After cell centrifugation at 2000× g for 2 min at 4 °C, the supernatant was collected and supplemented with 50% glycerol. Bradford’s method was used to measure the protein concentration in HT22 lysates using the bovine serum albumin as the standard. The co-immunoprecipitation was carried out using the protein A/G PLUS-Agarose, following the instructions described by the manufacturer in the technical data sheet. […] Then, 10 μg of mouse anti-β-amyloid antibody was added to the Eppendorf tube and incubated for 1 h at 4 °C with continuous gentle shaking. Afterward, 50 μL of protein A/G PLUS-Agarose was added and incubated overnight at 4 °C with continuous shaking. […] The agarose beads were precipitated by centrifugation at 2500× g for 5 min at 4 °C in a refrigerated Eppendorf microcentrifuge. […] A centrifugation step (2500× g, 5 min at 4 °C) was performed in a refrigerated Eppendorf microcentrifuge after each washing step. […]

HT-22 cells [3] = experiment: Intracellular ROS, H2DCFDA oxidation; assay type: cell-based, mouse; settings: 2 μM Aβ(1-42), 10 μM H2DCFDA, p < 0.05
Procedure: For the detection of intracellular ROS levels, we measured the oxidation of H2DCFDA to the fluorescent compound dichlorofluorescein, as previously described, with minor modifications. […] Then, 10 μM of H2DCFDA was added to the medium and the fluorescence intensity was recorded every 15 s for 10 min with an excitation filter of 470 nm, and 510 nm dichroic mirror/520 nm emission filter, using an exposure time of 0.2 s.

[4] = system: mature cerebellar granule neurons; settings: 2 h of incubation; cited from earlier work
PDI = system: PDI; set-up: method as in earlier work; settings: up to 200 nM Aβ(1-42), HT-22 cell lysates, isomerase assay of ref 67; cited from earlier work
HT-22 cells [5] = experiment: Internalization of Aβ(1-42) in living HT-22 cells (red fluorescence of Aβ(1-42)*555, calibration curve); assay type: cell-based, mouse; settings: 2 μM Aβ(1-42) total (unlabeled plus Aβ(1-42)*555) in culture medium, 37 °C, 5% CO2, red fluorescence microscopy, calibration with Aβ(1-42)*555 in fixed permeabilized cells, mean ± SEM
Procedure: Then, the cells were washed once with 1 mL of MLocke’s K5, and the 35 mm dishes were placed in the holder of the microscope at 37 °C for RF imaging. The fluorescence microscopy images of the HT-22 cells were acquired with a Hamamatsu Orca-R^2 CCD camera (binning mode 2 × 2) camera (Hamamatsu, Hamamatsu-city, Japan) attached to a Nikon Diaphot 300 epifluorescence microscope (Tokyo, Japan) with an NCF Plan ELWD 40× objective, using an excitation filter of 556 nm and a dichroic mirror of 580 nm with an emission filter of 590 nm, and a 0.06 s exposure time. The ROI tool of the HCImage software was used for the quantitative analysis. The average fluorescence intensity readings per pixel in HT-22 cells were taken from several fields for a total number of 80 cells and after the subtraction of the autofluorescence. […]
Supplementary Figure S1. Calibration data were obtained with […]
medium of fixed and permeabilized HT-22 cells to calculate the internalized concentration of Aβ(1–42) in living HT-22 cells. The […]
monomers/L. The results shown are the mean ± SEM of
(also on this page, place not known: Fluorescence Intensity per pixel (A.U.))

HT-22 cells [6] = experiment: Cellular GSH level, monochlorobimane fluorescence; assay type: cell-based, mouse; settings: 2 μM Aβ(1-42), 2 h or 5 h; 10 μM MCB
Procedure: The cellular GSH level was monitored with MCB using fluorescence microscopy, as described in our previous work. Images were acquired with a Nikon Diaphot 300 epifluorescence microscope, with an excitation filter of 380 nm.
(A) Representative microscopy images
(B) Means of the average fluorescence intensity
Supplementary Figure S5. GSH levels are not altered after 2 h […]
37 ᵒC were washed once with MLocke’s K5 buffer and the plates were placed in the holder of the fluorescence microscope (37 ᵒC) for cell imaging before and after the addition of 10 μM MCB as described in the Material and Methods section.
Panel A: representative bright field and blue fluorescence images
(GS-MCB) acquired 2 min after MCB addition of untreated cells […]
exposure was 0.7 s and the scale bar inserted = 20 μm. Panel B: means of fluorescence intensity per pixel of HT-22 cells after 2 min of incubation with MCB (10 μM). The results shown are the […]
in GSH levels between untreated cells (control) and cells treated […]
(also on this page, place not known: 0 100 200 300 400 Fluorescenece (Intensity/pixel) µM Aβ(1-42) µM Aβ(1-42) n.s. n.s. Bright Blue Fluorescence Control 2h IJMS-1941218 field 2 2 of MCB 2 2 h 5 h) […]

RyR = biological target: T2, RyR (Mus musculus, UniProt E9Q401); experiment: Tg-induced Ca2+ release from stores in Fluo3-loaded HT-22 cells with the RyR antagonist ryanodine; assay type: cell-based
T2 construct: incubation with 100 μM of the RyR antagonist ryanodine for 1 h in the HT-22 culture media; endogenous in cells; host or cells: HT-22 (mouse hippocampal cell line)
Procedure: as §1

HT-22 cells [7] = experiment: Resting cytosolic Ca2+ concentration, Fura2/Fluo3-loaded HT-22 cells; assay type: cell-based, mouse; settings: 2 μM Aβ(1-42), control 75 ± 8 nM, mean ± SEM of triplicates, n > 60 cells
Procedure: as §1, with “vehicle controls. […]” for “vehicle controls.”

T2 sequence (E9Q401 whole entry): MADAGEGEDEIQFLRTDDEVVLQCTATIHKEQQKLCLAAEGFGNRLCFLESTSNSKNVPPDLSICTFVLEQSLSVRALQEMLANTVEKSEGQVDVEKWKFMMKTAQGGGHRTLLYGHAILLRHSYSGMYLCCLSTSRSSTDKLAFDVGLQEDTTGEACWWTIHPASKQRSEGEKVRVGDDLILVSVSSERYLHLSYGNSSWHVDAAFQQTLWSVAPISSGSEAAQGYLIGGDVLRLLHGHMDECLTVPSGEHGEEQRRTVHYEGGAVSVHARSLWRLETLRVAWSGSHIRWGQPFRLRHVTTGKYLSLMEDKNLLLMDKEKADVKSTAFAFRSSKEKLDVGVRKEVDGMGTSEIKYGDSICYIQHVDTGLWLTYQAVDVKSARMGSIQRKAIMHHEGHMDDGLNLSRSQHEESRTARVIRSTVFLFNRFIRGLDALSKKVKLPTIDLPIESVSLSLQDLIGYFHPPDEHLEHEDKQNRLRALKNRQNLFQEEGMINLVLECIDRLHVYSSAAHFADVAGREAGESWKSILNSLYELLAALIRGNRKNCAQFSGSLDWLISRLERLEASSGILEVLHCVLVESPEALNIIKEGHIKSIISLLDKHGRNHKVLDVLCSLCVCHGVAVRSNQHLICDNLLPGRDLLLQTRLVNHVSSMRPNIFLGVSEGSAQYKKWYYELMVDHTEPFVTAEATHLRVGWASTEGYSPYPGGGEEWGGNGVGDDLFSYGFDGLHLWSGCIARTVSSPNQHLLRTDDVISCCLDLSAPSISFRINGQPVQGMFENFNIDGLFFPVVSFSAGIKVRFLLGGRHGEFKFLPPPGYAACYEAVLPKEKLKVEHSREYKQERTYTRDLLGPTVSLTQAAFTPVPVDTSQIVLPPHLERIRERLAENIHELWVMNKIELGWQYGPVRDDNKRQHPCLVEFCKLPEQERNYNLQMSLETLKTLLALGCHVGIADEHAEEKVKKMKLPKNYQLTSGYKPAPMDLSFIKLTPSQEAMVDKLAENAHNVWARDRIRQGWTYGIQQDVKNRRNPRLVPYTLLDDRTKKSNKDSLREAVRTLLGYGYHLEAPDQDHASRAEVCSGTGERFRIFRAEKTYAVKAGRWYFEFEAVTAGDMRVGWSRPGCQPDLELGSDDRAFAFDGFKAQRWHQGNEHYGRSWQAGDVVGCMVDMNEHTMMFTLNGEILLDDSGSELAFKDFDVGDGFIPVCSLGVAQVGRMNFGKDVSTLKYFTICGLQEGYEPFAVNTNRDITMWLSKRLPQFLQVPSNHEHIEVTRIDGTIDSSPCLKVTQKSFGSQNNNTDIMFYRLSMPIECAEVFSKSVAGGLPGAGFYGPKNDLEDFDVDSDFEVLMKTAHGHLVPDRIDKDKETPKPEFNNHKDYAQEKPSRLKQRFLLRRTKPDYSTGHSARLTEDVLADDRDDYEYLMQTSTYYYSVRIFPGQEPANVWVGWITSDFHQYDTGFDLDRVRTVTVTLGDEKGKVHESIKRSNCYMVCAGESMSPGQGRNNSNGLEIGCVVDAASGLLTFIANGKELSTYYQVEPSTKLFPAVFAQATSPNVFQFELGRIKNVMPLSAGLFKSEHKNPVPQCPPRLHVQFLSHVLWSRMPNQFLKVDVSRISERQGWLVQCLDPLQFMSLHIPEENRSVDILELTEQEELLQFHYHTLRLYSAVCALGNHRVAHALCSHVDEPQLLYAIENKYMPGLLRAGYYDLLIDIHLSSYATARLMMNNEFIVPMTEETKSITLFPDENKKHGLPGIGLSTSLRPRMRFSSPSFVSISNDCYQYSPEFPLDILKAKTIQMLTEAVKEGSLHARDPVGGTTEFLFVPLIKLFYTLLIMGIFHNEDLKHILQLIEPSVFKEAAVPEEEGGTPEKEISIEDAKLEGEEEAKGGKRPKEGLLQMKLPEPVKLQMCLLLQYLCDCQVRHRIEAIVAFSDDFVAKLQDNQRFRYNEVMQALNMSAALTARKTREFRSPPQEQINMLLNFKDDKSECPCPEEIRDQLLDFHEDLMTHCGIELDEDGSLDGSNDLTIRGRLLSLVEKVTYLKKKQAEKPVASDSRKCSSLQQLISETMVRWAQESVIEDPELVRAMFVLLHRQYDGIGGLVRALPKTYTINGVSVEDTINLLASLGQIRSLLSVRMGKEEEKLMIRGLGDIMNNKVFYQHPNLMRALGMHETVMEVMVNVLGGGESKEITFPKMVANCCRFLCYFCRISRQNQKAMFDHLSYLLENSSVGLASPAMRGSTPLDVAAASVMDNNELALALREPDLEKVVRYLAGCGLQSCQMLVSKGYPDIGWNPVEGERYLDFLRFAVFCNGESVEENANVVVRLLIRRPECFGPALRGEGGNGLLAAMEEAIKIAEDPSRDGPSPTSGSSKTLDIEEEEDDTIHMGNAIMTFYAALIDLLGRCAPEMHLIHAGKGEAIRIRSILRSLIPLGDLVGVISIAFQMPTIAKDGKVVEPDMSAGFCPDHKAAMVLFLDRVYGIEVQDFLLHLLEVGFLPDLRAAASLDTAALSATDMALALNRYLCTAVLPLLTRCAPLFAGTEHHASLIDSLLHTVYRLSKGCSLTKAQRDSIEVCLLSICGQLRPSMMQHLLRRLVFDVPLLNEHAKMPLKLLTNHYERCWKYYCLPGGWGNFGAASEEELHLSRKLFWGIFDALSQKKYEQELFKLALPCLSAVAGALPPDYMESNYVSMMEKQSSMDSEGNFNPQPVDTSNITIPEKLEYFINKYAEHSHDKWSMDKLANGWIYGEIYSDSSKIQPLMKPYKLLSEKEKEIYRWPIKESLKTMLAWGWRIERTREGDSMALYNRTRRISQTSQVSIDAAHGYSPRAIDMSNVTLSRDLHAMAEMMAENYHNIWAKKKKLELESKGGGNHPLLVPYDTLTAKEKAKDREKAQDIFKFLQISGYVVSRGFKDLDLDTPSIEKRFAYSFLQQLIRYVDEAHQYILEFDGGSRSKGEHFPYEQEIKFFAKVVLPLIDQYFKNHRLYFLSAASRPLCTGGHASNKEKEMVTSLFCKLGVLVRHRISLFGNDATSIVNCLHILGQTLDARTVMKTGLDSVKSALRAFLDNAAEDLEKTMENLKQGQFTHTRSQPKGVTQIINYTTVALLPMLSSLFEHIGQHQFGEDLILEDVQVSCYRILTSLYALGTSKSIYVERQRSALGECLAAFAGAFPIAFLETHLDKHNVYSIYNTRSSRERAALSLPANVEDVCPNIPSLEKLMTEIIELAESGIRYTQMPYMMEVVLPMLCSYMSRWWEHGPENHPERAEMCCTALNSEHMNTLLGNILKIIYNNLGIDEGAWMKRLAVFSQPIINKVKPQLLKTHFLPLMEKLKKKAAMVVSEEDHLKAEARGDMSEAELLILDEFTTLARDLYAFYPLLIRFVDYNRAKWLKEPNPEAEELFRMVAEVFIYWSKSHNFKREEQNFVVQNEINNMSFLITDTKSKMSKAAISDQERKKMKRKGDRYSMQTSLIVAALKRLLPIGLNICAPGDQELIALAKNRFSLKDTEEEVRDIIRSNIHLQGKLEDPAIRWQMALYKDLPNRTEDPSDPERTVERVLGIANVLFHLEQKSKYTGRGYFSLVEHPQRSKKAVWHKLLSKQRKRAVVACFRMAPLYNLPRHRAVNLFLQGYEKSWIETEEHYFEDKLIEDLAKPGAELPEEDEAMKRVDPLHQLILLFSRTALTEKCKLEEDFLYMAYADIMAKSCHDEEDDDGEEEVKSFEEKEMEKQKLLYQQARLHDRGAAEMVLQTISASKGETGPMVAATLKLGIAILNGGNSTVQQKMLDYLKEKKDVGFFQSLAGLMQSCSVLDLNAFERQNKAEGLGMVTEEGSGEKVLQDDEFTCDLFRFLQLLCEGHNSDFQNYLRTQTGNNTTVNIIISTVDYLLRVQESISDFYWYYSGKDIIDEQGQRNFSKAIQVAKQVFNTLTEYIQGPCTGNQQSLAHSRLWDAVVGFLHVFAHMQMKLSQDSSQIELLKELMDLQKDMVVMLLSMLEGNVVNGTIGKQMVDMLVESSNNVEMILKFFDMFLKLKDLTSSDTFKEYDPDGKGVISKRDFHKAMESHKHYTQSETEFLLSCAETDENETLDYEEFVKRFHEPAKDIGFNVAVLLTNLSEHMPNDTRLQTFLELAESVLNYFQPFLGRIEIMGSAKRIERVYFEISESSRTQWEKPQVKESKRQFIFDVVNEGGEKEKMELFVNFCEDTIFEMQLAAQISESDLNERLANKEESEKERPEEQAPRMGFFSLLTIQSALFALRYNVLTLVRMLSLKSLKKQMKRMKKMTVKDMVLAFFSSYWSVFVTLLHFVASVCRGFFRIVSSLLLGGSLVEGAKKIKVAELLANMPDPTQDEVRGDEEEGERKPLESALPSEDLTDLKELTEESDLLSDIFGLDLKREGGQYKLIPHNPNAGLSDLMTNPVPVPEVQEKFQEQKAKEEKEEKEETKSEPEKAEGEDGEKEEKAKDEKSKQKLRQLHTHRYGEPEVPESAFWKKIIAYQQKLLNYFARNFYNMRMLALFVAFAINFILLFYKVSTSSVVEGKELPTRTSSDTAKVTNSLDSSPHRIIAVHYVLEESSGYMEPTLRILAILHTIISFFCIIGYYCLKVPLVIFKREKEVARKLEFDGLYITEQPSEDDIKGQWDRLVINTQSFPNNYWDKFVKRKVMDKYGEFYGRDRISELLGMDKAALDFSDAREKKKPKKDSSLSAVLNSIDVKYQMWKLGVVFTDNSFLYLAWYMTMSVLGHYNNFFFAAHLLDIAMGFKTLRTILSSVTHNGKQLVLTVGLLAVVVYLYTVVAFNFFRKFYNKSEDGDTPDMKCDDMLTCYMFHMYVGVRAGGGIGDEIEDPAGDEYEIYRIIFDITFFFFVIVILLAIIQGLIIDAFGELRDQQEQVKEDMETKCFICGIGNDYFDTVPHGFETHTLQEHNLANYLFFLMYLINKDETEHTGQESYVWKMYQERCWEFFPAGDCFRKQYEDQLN

## Cc1nnsc1C(=O)Nc1ccc(-n2nc(C(F)(F)F)cc2C(F)(F)F)cc1 [BTP2, N-[4-[3,5-bis(trifluoromethyl)pyrazol-1-yl]phenyl]-4-methylthiadiazole-5-carboxamide]
[1]; 3 μM BTP2, 15 min, control HT-22 cells
  Ca2+ released from the stores after addition of Tg versus control: no significative difference
[1]; 3 μM BTP2, 15 min preincubation, 37 °C, control HT-22 cells, mean ± SEM, n > 80 cells
  decrease of Ca2+ entry through the plasma membrane relative to control without BTP2: 71 ± 8%

## N#CC(C#N)=NNc1ccc(OC(F)(F)F)cc1 [FCCP, trifluoromethoxy carbonylcyanide phenylhydrazone]
HT-22 cells [2]; 5 μM FCCP, TMRE-loaded HT-22 cells
  mitochondria membrane potential after addition (positive control of depolarization): large decrease

## CC(=O)OCC[N+](C)(C)C [acetylcholine]
HT22 cells; 100 μM acetylcholine, Fluo3-loaded cells
  fraction of HT22 cells showing intracellular calcium concentration peaks: less than 25%
HT22 cells
  intracellular calcium response in the majority of the cells: almost negligible

## C[N+](C)(C)CCOC(N)=O [carbachol]
HT22 cells
  intracellular calcium response in the majority of the cells: almost negligible

## Aβ(1-42): Unlabeled amyloid β peptide (1-42), synthesized and supplied by StabVida
HT-22 cells [2]; 2 μM Aβ(1-42), 2 h or 5 h, p > 0.05
  mitochondria membrane potential (TMRE ΔF/F0 before/after FCCP) versus control: not altering the mitochondria membrane potential
STIM1
  STIM1 co-immunoprecipitation with anti-Aβ(1-42) antibody: formation of STIM1-Aβ complexes
HT-22 cells [3]; 2 h
  increase in ROS production compared with untreated cells: 1.3 fold
HT-22 cells [3]; 5 h
  increase in ROS production compared with untreated cells: 1.7 fold
[4]
  internalized Aβ(1-42): about 193 ± 21 nM
PDI
  inhibition of PDI activity: did not significantly inhibit
[1]; 2 μM Aβ(1-42) 2 h plus 3 μM BTP2 15 min, mean ± SEM
  inhibition of Ca2+ released from stores after Tg addition: 42 ± 6%
[1]; 2 μM Aβ(1-42), 2 h, 37 °C, 2 μM Tg, Ca2+-free medium, ΔF/F0, mean ± SEM, n > 80 cells
  inhibition of Ca2+ release from the stores after Tg addition, compared with control: 37 ± 7%
[1]; 2 μM Aβ(1-42), 2 h, 37 °C, 3 mM Ca2+ after Tg, ΔF/F0, mean ± SEM, n > 80 cells
  inhibition of Ca2+ entry through the plasma membrane after Ca2+ addition, compared with control: 32 ± 6%
[1]; HT-22 cells, no thapsigargin
  SOCE induced by Aβ(1-42) in the absence of Tg: did not detect
HT-22 cells [5]; 2 h
  concentration of internalized Aβ(1-42) monomers: 62 ± 11 nM
HT-22 cells [5]; 5 h
  concentration of internalized Aβ(1-42) monomers: 135 ± 15 nM
HT-22 cells [6]
  GSH levels versus untreated cells: not significantly different
RyR; 2 μM Aβ(1-42) 2 h plus 100 μM ryanodine
  Tg-induced Ca2+ released from the stores, compared with cells treated only with Aβ(1-42): three-fold higher
HT-22 cells [7]; 2 h
  intracellular Ca2+ concentration [Ca2+]i: 81 ± 9 nM
HT-22 cells [7]; 5 h
  intracellular Ca2+ concentration [Ca2+]i: 82 ± 8 nM

## ryanodine
RyR; 100 μM ryanodine, 1 h, 37 °C, control HT-22 cells, 2 μM Tg
  increase of ER Ca2+ content (Tg-induced Ca2+ release from stores) versus control without ryanodine: about 2.2 fold

From paper PMC9604325 (International Journal of Molecular Sciences, 2022)
